Assay results as given in the supplement of paper PMC11208160.

Experiment: recombinant barcode read abundance after kanamycin selection (control-corrected) (log10(CPM+1)); higher = more efficient recombination; sequences stand for … in AGTGCAGAGAAAATCGGCCAGTTTTCTCTGCCTGCAGTCCGCATGCCGT…AGATTTATGCAGCGGACTGCCTTTCTCCCAAAGTGATAAACCGGACAGTATCATGGACCGGTTTTCCCGGTAATCCGTATTTGCAAGGTTGGTTTCACT; site = the 11-nt target
In short: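 Pooled oligos, each joining a target to an IS621 bridge RNA target-binding loop, were cloned and co-electroporated with a donor plasmid into E. coli. Selective plates carried chloramphenicol/ampicillin/kanamycin and 0.1 mM IPTG, while chloramphenicol/ampicillin LB agar served as control, with two replicates of each. Recombination efficiency rests on averaged, control-corrected counts per million of barcodes at recombinant junctions, shown as log10(CPM+1).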
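Note: IS621 recombinase and bridge RNA in Escherichia coli cells.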

Sequence	recombinant barcode read abundance (log10)
GGAGGGACTTGGGTTCTAACCTGTTGCCT (site GAAGGGACTAG)	1.38
GGAGGGACTTGGGTTCTAACCTGTTGCCT (site GCAGGGACTAG)	0.658
GGAGGGACTTGGGTTCTAACCTGTTGCCT (site GGAGGGACTAG)	2.69
GGAGGGACTTGGGTTCTAACCTGTTGCCT (site GTAGGGACTAG)	1.7
GGAGGTACTTGGGTTCTAACCTGTTGCCT (site GGAGGAACTAG)	0.0658
GGAGGTACTTGGGTTCTAACCTGTTGCCT (site GGAGGTACTAG)	1.17
GGAGGTCCTTGGGTTCTAACCTGTTGCTA (site GGAGGTCCTTA)	2.08
GGAGGTCCTTGGGTTCTAACCTGTTGCTA (site TAAGGTCCTTA)	0.0399
GGAGTACCTTGGGTTCTAACCTGTTGCAT (site CCTCATACTTG)	0.0895
GGAGTACCTTGGGTTCTAACCTGTTGCAT (site GGAGTACCTAT)	2.12
GGAGTTGCTTGGGTTCTAACCTGTTGCCT (site GGAGATTCTAG)	0.273
GGAGTTGCTTGGGTTCTAACCTGTTGCCT (site GGAGTTGCTAG)	2.27
GGATACACTTGGGTTCTAACCTGTTGCCT (site GGATACACTAG)	2.06
GGATACACTTGGGTTCTAACCTGTTGCCT (site GGTTACACTAG)	0.395
GGATCCACTTGGGTTCTAACCTGTTGCCA (site GGATACACTTG)	0.049
GGATCCACTTGGGTTCTAACCTGTTGCCA (site GGATCCACTTG)	0.117
GGATCCACTTGGGTTCTAACCTGTTGCCA (site GGATGCACTTG)	0.0631
GGATCCACTTGGGTTCTAACCTGTTGCCA (site GGATTCACTTG)	0.0388
GGATTCCCTTGGGTTCTAACCTGTTGCCA (site GGAGTCCCTTC)	0.242
GGATTCCCTTGGGTTCTAACCTGTTGCCA (site GGATTCCCTTG)	1.15
GGATTTACTTGGGTTCTAACCTGTTGCCT (site GGATATACTAG)	0.0849
GGATTTACTTGGGTTCTAACCTGTTGCCT (site GGATTTACTAG)	0.276

Sequence	recombinant barcode read abundance (log10)
GGCAAGACTTGGGTTCTAACCTGTTGCCT (site GGAAAGACTAG)	0
GGCAAGACTTGGGTTCTAACCTGTTGCCT (site GGCAAGACTAG)	0.185
GGCAAGACTTGGGTTCTAACCTGTTGCCT (site GGGAAGACTAG)	0.154
GGCAAGACTTGGGTTCTAACCTGTTGCCT (site GGTAAGACTAG)	0.0715
GGCACGGCTTGGGTTCTAACCTGTTGCCT (site GGCACAGCTAG)	0.519
GGCACGGCTTGGGTTCTAACCTGTTGCCT (site GGCACCGCTAG)	0.0995
GGCACGGCTTGGGTTCTAACCTGTTGCCT (site GGCACGGCTAG)	0.134
GGCACGGCTTGGGTTCTAACCTGTTGCCT (site GGCACTGCTAG)	0.11
GGCAGGTCTTGGGTTCTAACCTGTTGCTT (site GGCAGATCTAA)	0.163
GGCAGGTCTTGGGTTCTAACCTGTTGCTT (site GGCAGCTCTAA)	0.0728
GGCAGGTCTTGGGTTCTAACCTGTTGCTT (site GGCAGGTCTAA)	0.795
GGCAGGTCTTGGGTTCTAACCTGTTGCTT (site GGCAGTTCTAA)	0.044
GGCAGTTCTTGGGTTCTAACCTGTTGCTT (site GGCAGATCTAA)	0.0437
GGCAGTTCTTGGGTTCTAACCTGTTGCTT (site GGCAGCTCTAA)	0.0661
GGCAGTTCTTGGGTTCTAACCTGTTGCTT (site GGCAGGTCTAA)	0.0765
GGCAGTTCTTGGGTTCTAACCTGTTGCTT (site GGCAGTTCTAA)	0.0537
GGCCCCTCTTGGGTTCTAACCTGTTGCCG (site CGCGCCTCTCG)	0.368
GGCCCCTCTTGGGTTCTAACCTGTTGCCG (site GGCCCCTCTCG)	1.8
GGCCGAACTTGGGTTCTAACCTGTTGCCT (site AGCCGAACTAG)	0.112
GGCCGAACTTGGGTTCTAACCTGTTGCCT (site CGCCGAACTAG)	0.0639
GGCCGAACTTGGGTTCTAACCTGTTGCCT (site GGCCGAACTAG)	0.211
GGCCGAACTTGGGTTCTAACCTGTTGCCT (site TGCCGAACTAG)	0.144

Sequence	recombinant barcode read abundance (log10)
GGCCGGGCTTGGGTTCTAACCTGTTGCGG (site GCCCGGGCTCC)	0.286
GGCCGGGCTTGGGTTCTAACCTGTTGCGG (site GGCCGGGCTCC)	0.906
GGCCTCCCTTGGGTTCTAACCTGTTGCAT (site CGCCTCCCTAT)	0.0328
GGCCTCCCTTGGGTTCTAACCTGTTGCAT (site GGCCTCCCTAT)	0.743
GGCGACCCTTGGGTTCTAACCTGTTGCCT (site GGCGACCCTAG)	0.99
GGCGACCCTTGGGTTCTAACCTGTTGCCT (site GGCGTCACTAG)	0.143
GGCGAGTCTTGGGTTCTAACCTGTTGCTA (site GACGAGTCTTA)	1.4
GGCGAGTCTTGGGTTCTAACCTGTTGCTA (site GGCGAGTCTTA)	1.64
GGCGCATCTTGGGTTCTAACCTGTTGCCT (site GGCGCATCTAG)	0.417
GGCGCATCTTGGGTTCTAACCTGTTGCCT (site GGCGCGTCTAG)	0.207
GGCGGAGCTTGGGTTCTAACCTGTTGCCG (site CTGCACCCTTA)	0.0863
GGCGGAGCTTGGGTTCTAACCTGTTGCCG (site GGCGGAGCTCG)	1.27
GGCGGCTCTTGGGTTCTAACCTGTTGCCT (site ACATAAGCTTA)	0.103
GGCGGCTCTTGGGTTCTAACCTGTTGCCT (site GGCGGCTCTAG)	1.42
GGCTATGCTTGGGTTCTAACCTGTTGCCT (site GACTATGCTAG)	0.143
GGCTATGCTTGGGTTCTAACCTGTTGCCT (site GCCTATGCTAG)	0.106
GGCTATGCTTGGGTTCTAACCTGTTGCCT (site GGCTATGCTAG)	0.175
GGCTATGCTTGGGTTCTAACCTGTTGCCT (site GTCTATGCTAG)	0.0729
GGCTGAGCTTGGGTTCTAACCTGTTGCCT (site GACTGAGCTAC)	0.0838
GGCTGAGCTTGGGTTCTAACCTGTTGCCT (site GGCTGAGCTAG)	0.856
GGCTGATCTTGGGTTCTAACCTGTTGCCT (site AGCTGATCTAG)	0.126
GGCTGATCTTGGGTTCTAACCTGTTGCCT (site CGCTGATCTAG)	0.309

Sequence	recombinant barcode read abundance (log10)
GGCTGATCTTGGGTTCTAACCTGTTGCCT (site GGCTGATCTAG)	0.382
GGCTGATCTTGGGTTCTAACCTGTTGCCT (site TGCTGATCTAG)	0.216
GGCTGCACTTGGGTTCTAACCTGTTGCCT (site GGCGGTACTAG)	0.504
GGCTGCACTTGGGTTCTAACCTGTTGCCT (site GGCTGCACTAG)	1.17
GGCTGGGCTTGGGTTCTAACCTGTTGCCG (site GGCTGGGCTCG)	0.125
GGCTGGGCTTGGGTTCTAACCTGTTGCCG (site GGTTGGGCTCT)	0.194
GGCTGTTCTTGGGTTCTAACCTGTTGCCT (site GACTGTTCTAG)	0.195
GGCTGTTCTTGGGTTCTAACCTGTTGCCT (site GCCTGTTCTAG)	0.425
GGCTGTTCTTGGGTTCTAACCTGTTGCCT (site GGCTGTTCTAG)	0.334
GGCTGTTCTTGGGTTCTAACCTGTTGCCT (site GTCTGTTCTAG)	0.242
GGCTTCCCTTGGGTTCTAACCTGTTGCCT (site GGCATCCCTAG)	0.299
GGCTTCCCTTGGGTTCTAACCTGTTGCCT (site GGCCTCCCTAG)	0.855
GGCTTCCCTTGGGTTCTAACCTGTTGCCT (site GGCGTCCCTAG)	0.141
GGCTTCCCTTGGGTTCTAACCTGTTGCCT (site GGCTTCCCTAG)	0.415
GGCTTGACTTGGGTTCTAACCTGTTGCCT (site CCAGGTGCTCC)	0.304
GGCTTGACTTGGGTTCTAACCTGTTGCCT (site GGCTTGACTAG)	0.694
GGGAACACTTGGGTTCTAACCTGTTGCCA (site GGGAACACTTG)	1.74
GGGAACACTTGGGTTCTAACCTGTTGCCA (site GGGCACACTTG)	0.11
GGGAACCCTTGGGTTCTAACCTGTTGCAT (site AGGAACTCTAT)	0.115
GGGAACCCTTGGGTTCTAACCTGTTGCAT (site GGGAACCCTAT)	1.96
